Drawing on BindingDB's records for doi:10.7270/Q2X63KDM (Burnham Center For Chemical Genomics, 2010), this text covers IC50 for 14 compounds.

pIC50: −log10 of the molar value. Some results are limits rather than exact numbers.

In the assay the target is Intestinal-type alkaline phosphatase (Homo sapiens, UniProt P09923). Description: inhibition of human intestinal alkaline phosphatase – biochemical, dose response (AID 488876).
Chain of Intestinal-type alkaline phosphatase (P09923 whole entry): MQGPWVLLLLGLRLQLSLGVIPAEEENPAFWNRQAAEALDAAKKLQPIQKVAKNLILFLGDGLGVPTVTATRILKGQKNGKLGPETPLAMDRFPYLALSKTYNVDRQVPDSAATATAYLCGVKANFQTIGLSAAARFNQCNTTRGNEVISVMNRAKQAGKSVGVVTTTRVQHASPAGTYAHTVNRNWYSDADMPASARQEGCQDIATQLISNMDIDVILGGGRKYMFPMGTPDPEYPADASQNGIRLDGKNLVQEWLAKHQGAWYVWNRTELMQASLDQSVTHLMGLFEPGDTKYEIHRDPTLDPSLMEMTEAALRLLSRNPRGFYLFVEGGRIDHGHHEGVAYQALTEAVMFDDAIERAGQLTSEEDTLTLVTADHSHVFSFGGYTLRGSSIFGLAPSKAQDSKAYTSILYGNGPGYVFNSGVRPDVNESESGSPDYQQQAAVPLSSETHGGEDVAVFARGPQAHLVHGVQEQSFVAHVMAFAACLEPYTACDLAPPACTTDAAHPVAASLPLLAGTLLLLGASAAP
As for `COc1cc(C=CC(=O)CC(=O)C=Cc2ccc(O)cc2)ccc1O` [demethoxycurcumin], the pIC50 is below 4.00.

Regarding `Cc1ccc(Cl)c2c1NC(=O)/C2=C1/NC(=S)NC1=O`, the pIC50 was below 4.00.

Regarding `Nc1nnc(CC(=O)N/N=C/C2C=C([N+](=O)[O-])C=C(Br)C2=O)s1` (centres undefined) [2-(5-azanyl-1,3,4-thiadiazol-2-yl)-N'-[(E)-(5-bromanyl-3-nitro-6-oxidanylidene-cyclohexa-2,4-dien-1-ylidene)methyl]ethanehydrazide], the negative-log IC50 (pIC50) was below 4.00.

`CC1NON=C1C(=O)NN=CC1=CC(=O)C(=O)C=C1` (centres undefined) [4-Methyl-furazan-3-carboxylic acid (3,4-dihydroxy-benzylidene)-hydrazide] gave a negative-log IC50 (pIC50) of 4.85.

Take `Cc1ccc(/C=C2\SC(=S)N(/N=C/C3C=C([N+](=O)[O-])C=CC3=O)C2=O)o1` (centres undefined) [(5Z)-5-[(5-methylfuran-2-yl)methylidene]-3-[[(E)-(3-nitro-6-oxocyclohexa-2,4-dien-1-ylidene)methyl]amino]-2-sulfanylidene-1,3-thiazolidin-4-one]: the pIC50 was 4.10.

`COc1cc(C=Nn2c(O)csc2=S)ccc1O` [3-[[(E)-(3-methoxy-4-oxidanylidene-cyclohexa-2,5-dien-1-ylidene)methyl]amino]-2-sulfanylidene-1,3-thiazolidin-4-one] had a pIC50 of 4.67.

For the compound `O=C1C=CC(/C=C/c2nc(O)c([N+](=O)[O-])c(=O)[nH]2)C=C1O` (centres undefined) [SMR000524347], the pIC50 is 5.36. Against the preceding compound, the pIC50 is 0.69 log units higher.

In turn, `C#CCOCCOCCOCCNc1nc(N2CCN(C(=O)CCCCCCCCCCNC(=O)Cn3cc(CCCCCN)nn3)CC2)nc(N2CCN(C(=O)CCCCCCCCCCNC(=O)Cn3cc(C[C@@H](C)O)nn3)CC2)n1` [KG-TG] had a negative logarithm of the IC50 (pIC50) below 4.00.

For `O=C(Nn1c(O)csc1=S)C(=O)Nn1c(O)csc1=S` [SMR000349781], the pIC50 is below 4.00.

For `O=C1C=CC(C=NNC(=S)Nc2ccccc2[N+](=O)[O-])C=C1O` (centres undefined) [MLS000417596], the pIC50 was below 4.00.

`Oc1ccc(C=Nn2c(O)csc2=S)c(O)c1O` [3-[[(E)-[2,3-bis(oxidanyl)-4-oxidanylidene-cyclohexa-2,5-dien-1-ylidene]methyl]amino]-2-sulfanylidene-1,3-thiazolidin-4-one]: the pIC50 was below 4.00.

The compound `C#CCOCCOCCOCCNc1nc(N2CCN(C(=O)CCCCCCCCCCNC(=O)[C@H]([C@@H](C)CC)n3cc(CCCCN=C(N)N)nn3)CC2)nc(N2CCN(C(=O)CCCCCCCCCCNC(=O)[C@@H]([C@H](C)O)n3cc(C)nn3)CC2)n1` [GT-RI] showed a negative-log IC50 (pIC50) of 4.06.

Turning to `C#CCOCCOCCOCCNc1nc(N2CCN(C(=O)CCCCCCCCCCNC(=O)[C@@H](CCSC)n3cc(CCO)nn3)CC2)nc(N2CCN(C(=O)CCCCCCCCCCNC(=O)[C@H]([C@@H](C)CC)n3cc(CCCCCN)nn3)CC2)n1` [MLS002153719], the pIC50 is 4.84.

As for `NS(=O)(=O)c1cc(C(=O)NNC2=c3ccccc3=NC2=O)ccc1Cl` [2-chloro-5-[[(2-oxoindol-3-yl)amino]carbamoyl]benzenesulfonamide], the pIC50 is below 4.00.
